In patent publication EP0317053B1, “Trigramin- a platelet aggregation inhibiting polypeptide” (Temple University of the Commonwealth System of Higher …, priority 1987, dated 1989):
Where no end group is shown, it is not given here.

How the values were obtained:
GPIIb-GPIIIa complex = experiment: Binding of 125I-trigramin to human platelets; conditions: both ligands
[1] = Hamster mesentery bleeding time during continuous intravenous infusion; format: in vivo, golden Syrian hamsters; conditions: 2 ng/kg/min; one hamster; positive control
Protocol: Female golden Syrian hamsters (90-150 g) were maintained on food and water ad libitum, but fasted overnight prior to their use in the present experiment. After the administration of anesthesia (65 mg/kg sodium pentobarbital, i.p.), the animals were shaved in preparation for surgery. The trachea was intubated with PE-100 polyethylene tubing to facilitate spontaneous breathing. Cannulation of the right femoral vein was performed to provide an intravenous route for supplemental anesthesia as well as for the administration of various control and experiment agents. A catheter was introduced into the right carotid artery for the continuous monitoring of arterial blood pressure, and a rectal temperature probe was inserted. […]
The shaved abdomen was opened by a mid-line incision and a portion of the small intestine was exteriorized and draped over a lucite pedestal. […] Bleeding was observed through Zeiss dissecting microscope (20 X) and bleeding time was recorded from the time of the cut until the cessation of bleeding by the formation of a hemostatic plug. Each animal was used as its own control with bleeding time determined both during the infusion of saline and the selected experimental agent. […] Four additional animals were infused with trigramin while arterial blood pressure was continuously monitored to determine if it had any direct effect on systemic blood pressure. […]

GQQHHLGGAKQAGDV
inhibition of the binding of ¹²⁵I-trigramin and of ¹²⁵I-fibrinogen to human platelets (GPIIb-GPIIIa complex): inhibited

CC#CCC(C)[C@H](O)/C=C/[C@@H]1[C@H]2C/C(=C/CCCC(=O)O)C[C@H]2C[C@H]1O (some centres unmarked) [Iloplrost]
time after the completion of the infusion until bleeding ceased [1]: approximately 9 minutes
